Measurements from US20250361268A1, “NOVEL ANTI-INFLAMMATORY PEPTIDE AND USE THEREOF” (NOVACELL TECHNOLOGY INC., priority 2022, published 2025).
Peptide text beside a SMILES is read from it.

How the values were obtained:
[1] = biological target: T1, FPR2 (Homo sapiens, UniProt P25090); assay: Change in calcium activity by peptide (Fura-2) in RBL cells overexpressing FPR2; assay type: cell-based; settings: calcium activity (Fura-2), graded per Table 3, read-out: EC50 for [Ca^2+] FPR2
T1 construct: expressed in transfected cells; host or cells: RBL cells (RBL-FPR2)
T1 sequence (P25090 1-351): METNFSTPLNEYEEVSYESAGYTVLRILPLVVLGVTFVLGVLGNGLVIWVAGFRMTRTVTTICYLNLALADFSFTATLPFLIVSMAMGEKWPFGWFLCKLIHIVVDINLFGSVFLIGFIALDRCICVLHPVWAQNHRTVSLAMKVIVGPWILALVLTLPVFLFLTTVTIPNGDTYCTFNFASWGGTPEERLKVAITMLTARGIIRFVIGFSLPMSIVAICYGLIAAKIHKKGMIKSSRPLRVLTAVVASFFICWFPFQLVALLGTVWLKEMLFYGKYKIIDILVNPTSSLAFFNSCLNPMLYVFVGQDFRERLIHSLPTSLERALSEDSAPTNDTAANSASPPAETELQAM
How it was run: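 Peptide-induced intracellular calcium change measured by Fura-2 fluorescence on a plate reader. Cells: RBL line overexpressing FPR2, dye-loaded 1 h at 37 °C then 30 min at RT in dark; peptides from 0.5 mM water/50% DMSO stocks, diluted in HBSS with 20 mM HEPES.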

[2] = biological target: T2, FPR1 (Homo sapiens, UniProt P21462); assay: Change in calcium activity by peptide, FPR1 activation effect; assay type: cell-based; settings: calcium activity (Fura-2), graded per Table 3, read-out: EC50 for [Ca^2+] FPR1
T2 sequence (P21462 1-350): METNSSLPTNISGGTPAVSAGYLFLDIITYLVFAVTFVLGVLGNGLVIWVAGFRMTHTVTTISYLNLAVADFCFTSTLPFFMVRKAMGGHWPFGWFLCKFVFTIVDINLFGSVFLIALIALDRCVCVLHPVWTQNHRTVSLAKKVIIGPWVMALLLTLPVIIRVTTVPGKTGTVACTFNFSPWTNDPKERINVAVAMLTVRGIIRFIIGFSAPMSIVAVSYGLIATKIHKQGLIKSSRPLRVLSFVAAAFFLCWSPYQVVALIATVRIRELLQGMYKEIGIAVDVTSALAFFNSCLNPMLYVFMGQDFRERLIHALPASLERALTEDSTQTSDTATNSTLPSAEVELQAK
How it was run: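 Calcium flux induced by peptide addition was monitored on a FlexStation 3 plate reader. Before this, cells seeded a day earlier (3×10^5/well) took up the Fura-2 dye for 1 h at 37 °C plus 30 min dark at room temperature.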

Compound	EC50 [1]	EC50 [2]
CCCC(=O)N1CCC[C@H]1C(=O)N[C@@H](CCCCN)C(=O)N[C@@H](Cc1ccc(O)cc1)C(=O)N[C@@H](CCCCN)C(=O)N[C@H](C(=O)N[C@H](CCSC)C(N)=O)C(C)C [Peptide 140] (HELM PEPTIDE1{[CCCC(=O)[*:2]].P.K.Y.K.V.[dM].[am]}$$$$V2.0)	< 10 nM	> 10000 nM
CCCC(=O)N[C@@H](Cc1c[nH]cn1)C(=O)N[C@@H](CCSC)C(=O)N[C@@H](CCCNC(=N)N)C(=O)N[C@@H](Cc1ccc(O)cc1)C(=O)N[C@@H](CCCCN)C(=O)N1CCC[C@H]1C(=O)N[C@H](CCSC)C(N)=O [Peptide 60] (HELM PEPTIDE1{[CCCC(=O)[*:2]].H.M.R.Y.K.P.[dM].[am]}$$$$V2.0)	< 10 nM	> 10000 nM
CCCC(=O)N1CCC[C@H]1C(=O)N[C@@H](CCSC)C(=O)N[C@@H](CCCCN)C(=O)N[C@@H](Cc1ccc(O)cc1)C(=O)N[C@@H](CCCCN)C(=O)N[C@H](C(=O)N[C@H](CCSC)C(N)=O)C(C)C [Peptide 27] (HELM PEPTIDE1{[CCCC(=O)[*:2]].P.M.K.Y.K.V.[dM].[am]}$$$$V2.0)	< 10 nM	> 10000 nM
CCCC(=O)N[C@@H](CCSC)C(=O)N[C@@H](CCCNC(=N)N)C(=O)N[C@@H](Cc1ccc(O)cc1)C(=O)N[C@@H](Cc1c[nH]c2ccccc12)C(=O)N1CCC[C@H]1C(=O)N[C@H](CCSC)C(N)=O [Peptide 112] (HELM PEPTIDE1{[CCCC(=O)[*:2]].M.R.Y.W.P.[dM].[am]}$$$$V2.0)	< 10 nM	1000 to 10000 nM
CSCC[C@@H](NC(=O)[C@H](Cc1ccc(O)cc1)NC(=O)[C@H](CCCCN)NC(=O)[C@H](Cc1ccc(O)cc1)NC(=O)[C@H](CCCCN)NC(=O)[C@H](Cc1c[nH]c2ccccc12)NC(=O)[C@H](CCCCN)NC(C)=O)C(N)=O [Peptide 36] (HELM PEPTIDE1{[ac].K.W.K.Y.K.Y.[dM].[am]}$$$$V2.0)	< 10 nM	> 10000 nM
CSCC[C@@H](NC(=O)[C@H](Cc1ccc(O)cc1)NC(=O)[C@H](CCCCN)NC(=O)[C@H](Cc1ccc(O)cc1)NC(=O)[C@H](CCCNC(=N)N)NC(=O)[C@H](Cc1c[nH]c2ccccc12)NC(=O)[C@H](CCCNC(=N)N)NC(C)=O)C(N)=O [Peptide 33] (HELM PEPTIDE1{[ac].R.W.R.Y.K.Y.[dM].[am]}$$$$V2.0)	< 10 nM	> 10000 nM
CSCC[C@H](NC(=O)[C@@H](N)CCCNC(=N)N)C(=O)N[C@@H](CCCNC(=N)N)C(=O)N[C@@H](Cc1ccc(O)cc1)C(=O)N[C@@H](CCCCN)C(=O)N1CCC[C@H]1C(=O)N[C@H](CCSC)C(N)=O [Peptide 50] (HELM PEPTIDE1{R.M.R.Y.K.P.[dM].[am]}$$$$V2.0)	< 10 nM	> 10000 nM
CCCCCCCC(=O)N1CCC[C@H]1C(=O)N[C@@H](CCCCN)C(=O)N[C@@H](Cc1ccc(O)cc1)C(=O)N[C@@H](CCCCN)C(=O)N[C@H](C(=O)N[C@H](CCSC)C(N)=O)C(C)C [Peptide 141] (HELM PEPTIDE1{[CCCCCCCC(=O)[*:2]].P.K.Y.K.V.[dM].[am]}$$$$V2.0)	< 10 nM	> 10000 nM
CSCC[C@@H](NC(=O)[C@H](Cc1ccc(O)cc1)NC(=O)[C@H](CCCCN)NC(=O)[C@H](Cc1ccc(O)cc1)NC(=O)[C@H](CCCNC(=N)N)NC(=O)[C@@H](N)Cc1c[nH]c2ccccc12)C(N)=O [Peptide 35] (HELM PEPTIDE1{W.R.Y.K.Y.[dM].[am]}$$$$V2.0)	< 10 nM	> 10000 nM
CCCC(=O)N[C@@H](CCSC)C(=O)N[C@@H](CCCNC(=N)N)C(=O)N[C@@H](Cc1ccc(O)cc1)C(=O)N[C@@H](CCCCN)C(=O)N[C@@H](Cc1ccc(O)cc1)C(=O)N[C@H](CCSC)C(N)=O [Peptide 43] (HELM PEPTIDE1{[CCCC(=O)[*:2]].M.R.Y.K.Y.[dM].[am]}$$$$V2.0)	11 to 100 nM	> 10000 nM
CSCC[C@@H](NC(=O)[C@@H](NC(=O)[C@H](Cc1c[nH]c2ccccc12)NC(=O)[C@H](Cc1ccc(O)cc1)NC(=O)[C@H](CCCNC(=N)N)NC(=O)[C@H](Cc1c[nH]c2ccccc12)NC(C)=O)C(C)C)C(N)=O [Peptide 102] (HELM PEPTIDE1{[ac].W.R.Y.W.V.[dM].[am]}$$$$V2.0)	< 10 nM	101 to 1000 nM
CCCC(=O)N[C@@H](CCSC)C(=O)N[C@@H](CCCCN)C(=O)N[C@@H](Cc1ccc(O)cc1)C(=O)N[C@@H](Cc1c[nH]c2ccccc12)C(=O)N[C@@H](Cc1ccc(O)cc1)C(=O)N[C@H](CCSC)C(N)=O [Peptide 91] (HELM PEPTIDE1{[CCCC(=O)[*:2]].M.K.Y.W.Y.[dM].[am]}$$$$V2.0)	11 to 100 nM	> 10000 nM
CCCCCCCC(=O)N[C@@H](CCCNC(=N)N)C(=O)N[C@@H](Cc1c[nH]c2ccccc12)C(=O)N[C@@H](CCCNC(=N)N)C(=O)N[C@@H](Cc1ccc(O)cc1)C(=O)N[C@@H](CCCCN)C(=O)N[C@H](C(=O)N[C@H](CCSC)C(N)=O)C(C)C [Peptide 2] (HELM PEPTIDE1{[CCCCCCCC(=O)[*:2]].R.W.R.Y.K.V.[dM].[am]}$$$$V2.0)	11 to 100 nM	1000 to 10000 nM
CCCC(=O)N[C@@H](CCCNC(=N)N)C(=O)N[C@@H](Cc1c[nH]c2ccccc12)C(=O)N[C@@H](CCCNC(=N)N)C(=O)N[C@@H](Cc1ccc(O)cc1)C(=O)N[C@@H](CCCCN)C(=O)N1CCC[C@H]1C(=O)N[C@H](CCSC)C(N)=O [Peptide 75] (HELM PEPTIDE1{[CCCC(=O)[*:2]].R.W.R.Y.K.P.[dM].[am]}$$$$V2.0)	< 10 nM	1000 to 10000 nM
CSCC[C@H](NC(=O)[C@@H]1CCCN1)C(=O)N[C@@H](CCCNC(=N)N)C(=O)N[C@@H](Cc1ccc(O)cc1)C(=O)N[C@@H](CCCCN)C(=O)N[C@@H](Cc1ccc(O)cc1)C(=O)N[C@H](CCSC)C(N)=O [Peptide 46] (HELM PEPTIDE1{P.M.R.Y.K.Y.[dM].[am]}$$$$V2.0)	< 10 nM	> 10000 nM
CSCC[C@@H](NC(=O)[C@@H]1CCCN1C(=O)[C@H](Cc1ccc(O)cc1)NC(=O)[C@H](Cc1ccc(O)cc1)NC(=O)[C@H](CCCNC(=N)N)NC(=O)[C@H](Cc1c[nH]c2ccccc12)NC(C)=O)C(N)=O [Peptide 122] (HELM PEPTIDE1{[ac].W.R.Y.Y.P.[dM].[am]}$$$$V2.0)	< 10 nM	101 to 1000 nM
CCCCCCCC(=O)N[C@H](C(=O)N[C@@H](CCCCN)C(=O)N[C@@H](Cc1ccc(O)cc1)C(=O)N[C@@H](CCCCN)C(=O)N1CCC[C@H]1C(=O)N[C@H](CCSC)C(N)=O)[C@@H](C)CC [Peptide 145] (HELM PEPTIDE1{[CCCCCCCC(=O)[*:2]].I.K.Y.K.P.[dM].[am]}$$$$V2.0)	11 to 100 nM	> 10000 nM
CCCCCCCC(=O)N[C@@H](CCCCN)C(=O)N[C@@H](CCSC)C(=O)N[C@@H](CCCCN)C(=O)N[C@@H](Cc1ccc(O)cc1)C(=O)N[C@@H](CCCCN)C(=O)N[C@H](C(=O)N[C@H](CCSC)C(N)=O)C(C)C [Peptide 12] (HELM PEPTIDE1{[CCCCCCCC(=O)[*:2]].K.M.K.Y.K.V.[dM].[am]}$$$$V2.0)	11 to 100 nM	> 10000 nM
CCCC(=O)N[C@@H](Cc1c[nH]cn1)C(=O)N[C@@H](CCCCN)C(=O)N[C@@H](Cc1ccc(O)cc1)C(=O)N[C@@H](Cc1c[nH]c2ccccc12)C(=O)N1CCC[C@H]1C(=O)N[C@H](CCSC)C(N)=O [Peptide 151] (HELM PEPTIDE1{[CCCC(=O)[*:2]].H.K.Y.W.P.[dM].[am]}$$$$V2.0)	< 10 nM	1000 to 10000 nM
CSCC[C@H](NC(=O)[C@@H]1CCCN1C(C)=O)C(=O)N[C@@H](CCCCN)C(=O)N[C@@H](Cc1ccc(O)cc1)C(=O)N[C@@H](CCCCN)C(=O)N[C@H](C(=O)N[C@H](CCSC)C(N)=O)C(C)C [Peptide 26] (HELM PEPTIDE1{[ac].P.M.K.Y.K.V.[dM].[am]}$$$$V2.0)	< 10 nM	> 10000 nM
CSCC[C@@H](NC(=O)[C@@H](NC(=O)[C@H](Cc1c[nH]c2ccccc12)NC(=O)[C@H](Cc1ccc(O)cc1)NC(=O)[C@H](CCCCN)NC(=O)[C@H](Cc1c[nH]c2ccccc12)NC(=O)[C@H](CCCCN)NC(C)=O)C(C)C)C(N)=O [Peptide 103] (HELM PEPTIDE1{[ac].K.W.K.Y.W.V.[dM].[am]}$$$$V2.0)	11 to 100 nM	1000 to 10000 nM
CSCC[C@@H](NC(=O)[C@@H](NC(=O)[C@H](Cc1ccc(O)cc1)NC(=O)[C@H](Cc1ccc(O)cc1)NC(=O)[C@H](CCCCN)NC(=O)[C@H](Cc1c[nH]c2ccccc12)NC(=O)[C@@H](N)CCCCN)C(C)C)C(N)=O [Peptide 96] (HELM PEPTIDE1{K.W.K.Y.Y.V.[dM].[am]}$$$$V2.0)	< 10 nM	1000 to 10000 nM
CSCC[C@H](NC(C)=O)C(=O)N[C@@H](CCCNC(=N)N)C(=O)N[C@@H](Cc1ccc(O)cc1)C(=O)N[C@@H](CCCCN)C(=O)N[C@@H](Cc1ccc(O)cc1)C(=O)N[C@H](CCSC)C(N)=O [Peptide 42] (HELM PEPTIDE1{[ac].M.R.Y.K.Y.[dM].[am]}$$$$V2.0)	11 to 100 nM	> 10000 nM
